We go through 2 molecules from ChEMBL document CHEMBL4330083, “Synthesis and evaluation of isoprenylation-resveratrol dimer derivatives against Alzheimer's disease” (Eur J Med Chem, 2019).

Active and inactive are the calls of the source. The rule behind the calls is not given here.

In assay [1] the test system is PC-12. The assay is described as follows: Neuroprotection against H2O2-induced oxidative damage in rat PC12 cells assessed as reduction in ROS production by measuring mean fluorescence intensity at 10 uM preincubated for 4 hrs followed by H2O2 addition measured after 24 hrs by DCFH-DA staining-based flow cytometric analysis (reference value: 102489). It counts as functional. (Flow cytometry measures light scatter and fluorescence of single cells or particles in a stream.)

For assay [2], the system named is PC-12. The assay is described as follows: Neuroprotection against H2O2-induced oxidative damage in rat PC12 cells assessed as necrotic cells at 5 uM after 24 hrs in presence of H2O2 by annexin V-FITC/propidium iodide staining based flow cytometric analysis (reference value: 0.4%). It counts as functional.
For assay [3], the system named is PC-12. The assay is described as follows: Neuroprotection against H2O2-induced oxidative damage in rat PC12 cells assessed as increase in mitochondrial membrane potential at 2.5 to 10 uM after 24 hrs in presence of H2O2 by JC-1 staining based flow cytometric analysis. It is filed as functional, cell-based.
Assay [4] deals with PC-12. The assay is described as follows: Neuroprotection against H2O2-induced oxidative damage in rat PC12 cells assessed as viable cells at 5 uM after 24 hrs in presence of H2O2 by annexin V-FITC/propidium iodide staining based flow cytometric analysis (reference value: 64.1%). It counts as functional. The settings on record: PC-12, 24 h, read-out: Activity.
Assay [5] can be described thus: Neuroprotection against LPS-induced inflammation in human BV2 cells assessed as reduction in ROS production by measuring mean fluorescence intensity at 10 uM after 18 hrs by DCFH-DA staining-based flow cytometric analysis (reference value: 56792). It is filed as functional.
The subject of assay [6] is PC-12. The assay is described as follows: Neuroprotection against H2O2-induced oxidative damage in rat PC12 cells assessed as viable cells at 10 uM after 24 hrs in presence of H2O2 by annexin V-FITC/propidium iodide staining based flow cytometric analysis (reference value: 64.1%). It counts as functional. The settings on record: PC-12, 24 h, read-out: Activity.
The nature of assay [7]: Neuroprotection against H2O2-induced inflammation in […] cells assessed as reduction in ROS production by measuring mean fluorescence intensity at 5 uM after 18 hrs by DCFH-DA staining-based flow cytometric analysis (reference value: 20004). It counts as functional.
Assay [8] deals with PC-12. The assay is described as follows: Neuroprotection against H2O2-induced oxidative damage in rat PC12 cells assessed as reduction in ROS production by measuring mean fluorescence intensity at 2.5 uM preincubated for 4 hrs followed by H2O2 addition measured after 24 hrs by DCFH-DA staining-based flow cytometric analysis (reference value: 82616). It counts as functional.

The subject of assay [9] is PC-12. The assay is described as follows: Neuroprotection against H2O2-induced oxidative damage in rat PC12 cells assessed as early apoptotic cells at 10 uM after 24 hrs in presence of H2O2 by annexin V-FITC/propidium iodide staining based flow cytometric analysis (reference value: 2.1%). It is filed as functional.
Assay [10] can be described thus: Neuroprotection against LPS-induced inflammation in […] cells assessed as reduction in ROS production by measuring mean fluorescence intensity at 5 uM after 18 hrs by DCFH-DA staining-based flow cytometric analysis (reference value: 70385). It is filed as functional.
A short description of assay [11]: Neuroprotection against H2O2-induced inflammation in […] cells assessed as reduction in ROS production by measuring mean fluorescence intensity at 2.5 uM after 18 hrs by DCFH-DA staining-based flow cytometric analysis (reference value: 11273). It counts as functional.
For assay [12], the system named is PC-12. Put plainly: Neuroprotection against H2O2-induced oxidative damage in rat PC12 cells assessed as mitochondrial membrane potential at 5 uM after 24 hrs in presence of H2O2 by Jc-1 staining based flow cytometric analysis (reference value: 16.35 +/- 3.19%). It counts as functional.
Assay [13] is described as follows: Neuroprotection against H2O2-induced inflammation in […] cells assessed as reduction in ROS production by measuring mean fluorescence intensity at 10 uM after 18 hrs by DCFH-DA staining-based flow cytometric analysis (reference value: 11273). It counts as functional.
Assay [14] has as its system PC-12. Put plainly: Neuroprotection against H2O2-induced oxidative damage in rat PC12 cells assessed as early apoptotic cells at 2.5 uM after 24 hrs in presence of H2O2 by annexin V-FITC/propidium iodide staining based flow cytometric analysis (reference value: 2.1%). It is filed as functional.
In assay [15] the test system is PC-12. The assay is described as follows: Neuroprotection against H2O2-induced oxidative damage in rat PC12 cells assessed as late apoptotic cells at 5 uM after 24 hrs in presence of H2O2 by annexin V-FITC/propidium iodide staining based flow cytometric analysis (reference value: 29.8%). It is filed as functional.
Assay [16] relates to PC-12. The assay is described as follows: Neuroprotection against H2O2-induced oxidative damage in rat PC12 cells assessed as viable cells at 5 uM after 24 hrs in presence of H2O2 by annexin V-FITC/propidium iodide staining based flow cytometric analysis (reference value: 63.6%). It counts as functional. The settings on record: PC-12, 24 h, read-out: Activity.
Assay [17] deals with PC-12. Put plainly: Neuroprotection against H2O2-induced oxidative damage in rat PC12 cells assessed as necrotic cells at 10 uM after 24 hrs in presence of H2O2 by annexin V-FITC/propidium iodide staining based flow cytometric analysis (reference value: 4.5%). It counts as functional.
Assay [18] can be described thus: Neuroprotection against H2O2-induced inflammation in […] cells assessed as reduction in ROS production by measuring mean fluorescence intensity at 5 uM after 18 hrs by DCFH-DA staining-based flow cytometric analysis (reference value: 11273). It counts as functional.

As to `CC(C)=CCc1c(O)cc(/C=C/c2ccc3c(c2)[C@H](c2cc(O)c(CC=C(C)C)c(O)c2)[C@@H](c2ccc(O)cc2)O3)cc1O`, the Flu intensity amounted to 25470 in the assay on PC-12 [1], 24076 in assay [5] and 11602 in [7]. Moreover, in the assay with PC-12 [2], the Activity amounted to 0.7%. For the same molecule, in the assay on PC-12 [3], the result was Active. In addition, the viability at 5 µM in the assay with PC-12 [4] stood at 82.2%. Besides, the viability at 10 µM with PC-12 [6] worked out at 88.4%.

As for `CC(C)=CCc1c(O)cc(/C=C/c2ccc3c(c2)[C@H](c2cc(O)c4c(c2)OC(C)(C)CC4)[C@@H](c2ccc(O)cc2)O3)cc1O`, the Flu intensity in the assay on PC-12 [8] came out at 61043; in assay [10], 51980; in [11] it was 11086; in assay [13], 7407; in [18], 9218. For the same molecule, the Activity in the assay on PC-12 [9] is reported as 1.9%; in the assay with PC-12 [12], 68.51%; with PC-12 [14], 2.1%; in the assay on PC-12 [15], 12.4%; in the assay on PC-12 [17], 0.6%. In addition, the viability at 5 µM with PC-12 [16] is 84%.
